Converted amounts (≈) assume the structure as drawn. Like-named read-outs stand apart in the source and are kept apart here. Blank lines part the entries; values can stand above or below the compound they belong to. Where a SMILES comes first, the peptide text is derived from it. [ ]: non-standard residue; d: D form.
Tests used:
[1] = system: healthy mouse red blood cells; settings: cited from earlier work; for hemolysis rate: reported in previous research, ref Zhou et al., 2021
From the text: Escherichia coli (E. coli) infection and LPS-induced inflammation are still of severe threat to human health. With the increasing problem of antibiotic resistance, there is a desperate need to develop new approaches to solve the problem.

[2] = ref Zhou et al., 2021; cited from earlier work
From the text: As essential components of innate immunity, antimicrobial peptides (AMPs) contribute to the first line of defense against infections. […] However, its ant ...

pepsin and trypsin = assay: Protease stability, pepsin and trypsin stated together
Experimental: The untreated peptides and buffer solution were used as control. […] All assays were carried out in triplicate.

[3] = system: murine RAW264.7 macrophage cells; settings: 128 μg/mL; cell line not given; ref Zhou et al., 2021; cited from earlier work
Experimental: The toxicity of peptides to mouse eukaryotic cells, macrophagocyte RAW 264.7 and Vero cells was determined.

E. coli ATCC25922 [4] = system: E. coli ATCC25922
Experimental: The MIC values of peptides against E. coli ATCC25922 were determined by the microtiter broth dilution method. The bacteria were grown to the mid-logarithmic phase and diluted into the Luria-Bertani (LB) broth at 1 × 10^5 CFU/mL. […] Polymyxin and the sterile aqua distillate were tested as control. All assays were performed in triplicate.

E. coli ATCC25922 [5] = assay: Development of resistance by serial passaging (MIC assay); assay type: cell-based, Escherichia coli; settings: 11 serial passages of E. coli ATCC25922, inoculum from 1/4 MIC well, 11 days
Experimental: The development of resistance against E. coli ATCC25922 of these peptides was performed by MIC assay. Mid-log phase of bacteria (1 × 10^5 CFU/mL) (90 μL/well) was added to 10 μL peptides solution (128, 64, 32, 16, 8, 4, 2, 1, 0.5, 0.25 μg/mL). Polymyxin were used as control. After incubation at 37°C for 16–18 h, bacteria form 1/4 MIC well were used to inoculate in fresh culture. The MIC values were continually determined as described above. The serial passaging was repeated for 11 days.

[6] = system: RAW264.7 cells and Vero cells; assay: Cytotoxicity, CCK-8 assay, RAW264.7 and Vero stated together; settings: 128 μg/mL; range over Figures 1D,E (RAW264.7 and Vero)
Experimental: Cells (2.5 × 10^4 cells/well) were added into 96-well plates and incubated at 37°C in a humidified 5% CO2 environment for 24 h. […] Sterile aqua distillate was used as control. Eventually, 10 μL WST-8 solutions were added into each well. After 4 h of incubation at 37°C, a microplate reader was applied to measure the absorbance of each sample at 460 nm. The following formula was used to calculate cell viability: Cell viability (%) = OD 460 nm of treated sample/OD 460 nm of control × 100%.

[7] = system: healthy mouse red blood cells; assay: Hemolysis; settings: mouse red blood cells 8% v/v, PBS pH 7.4, 37°C, 1 h, OD540, three replicates
Experimental: Hemolytic activity was estimated by determining hemoglobin released from healthy mouse red blood cells. Blood cells were washed three times in sterile PBS (10 mM, pH 7.4) and centrifuged at 1500 rpm for 5 min at 4°C. […] Afterward, the mixtures were incubated at 37°C for 1 h and centrifuged at 1500 rpm for 5 min. Ultimately, the absorbance of supernatants was measured at 540 nm. PBS and 0.1% Triton X-100 were used as the negative and the positive control, respectively. Hemolysis (%) = [(OD540 nm of the treated sample-OD540 nm of the negative control)/ (OD540 nm of positive control-OD540 nm of negative control)] × 100%.

pepsin = pepsin (Sus scrofa, UniProt P00791); assay: Protease stability (MIC after incubation with pepsin); assay type: in vitro ADME; settings: pepsin 3,000 U/mg, pH 2.0, 4 h, 37°C; peptide:protease 10:1 w/w (320 and 32 μg/mL); read-out MIC; triplicate
Chain of pepsin (P00791 60-385): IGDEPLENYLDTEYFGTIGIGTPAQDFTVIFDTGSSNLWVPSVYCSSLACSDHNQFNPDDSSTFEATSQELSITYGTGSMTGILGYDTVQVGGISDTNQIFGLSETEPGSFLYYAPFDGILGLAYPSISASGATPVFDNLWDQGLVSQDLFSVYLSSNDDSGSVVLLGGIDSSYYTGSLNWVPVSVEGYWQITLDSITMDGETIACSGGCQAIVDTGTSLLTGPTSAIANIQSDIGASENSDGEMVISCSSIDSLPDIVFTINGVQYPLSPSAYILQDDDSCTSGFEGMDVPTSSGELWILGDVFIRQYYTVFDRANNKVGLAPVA
Experimental: All assays were carried out in triplicate.

[8] = system: murine RAW264.7 macrophage cells
Experimental: The performance of the Cell Counting Kit-8 (CCK-8) assay was applied to investigate the effect of peptides on the viability of murine RAW264.7 macrophage cells and Vero cells in accordance with the previous method ([Zhou et al., 2021]). Cells (2.5 × 10^4 cells/well) were added into 96-well plates and incubated at 37°C in a humidified 5% CO2 environment for 24 h. Then various concentrations (0.15–20 μg/mL) of peptides were mixed with cells. Sterile aqua distillate was used as control. Eventually, 10 μL WST-8 solutions were added into each well. After 4 h of incubation at 37°C, a microplate reader was applied to measure the absorbance of each sample at 460 nm. The following formula was used to calculate cell viability: Cell viability (%) = OD 460 nm of treated sample/OD 460 nm of control × 100%.

Compound: CC[C@H](C)[C@H](NC(=O)[C@H](CCCNC(=N)N)NC(=O)[C@@H](NC(=O)[C@H](C)NC(=O)[C@@H](NC(=O)[C@@H](NC(=O)[C@H](CC(C)C)NC(=O)[C@H](CCCNC(=N)N)NC(=O)[C@@H](N)C(C)C)[C@@H](C)CC)C(C)C)C(C)C)C(=O)N[C@@H](Cc1c[nH]c2ccccc12)C(=O)N[C@@H](CCCNC(=N)N)C(=O)N[C@@H](CCCNC(=N)N)C(N)=O [IDR-1018] (H-VRLIVAVRIWRR-NH2)
- hemolysis rate ([1]; 32 μg/mL): 0.386%
- hemolysis rate ([1]; 64 μg/mL): 2.136%
- hemolysis rate ([1]; 128 μg/mL): 2.651%
- decrease of activity on exposure to inappropriate temperature, pH, or protease environment [2]: 2–16 times
- decline of anti-E. coli ability after exposure to pepsin and trypsin (pepsin and trypsin; 4 h, 37°C, pepsin pH 2.0 and trypsin pH 8.0, 10:1 w/w, read-out MIC vs untreated peptide): 2–4 times
- survival rate [3]: 95.9%

- decline of anti-E. coli ability after exposure to pepsin and trypsin (pepsin and trypsin): 4 times
- MIC (E. coli ATCC25922 [4]; ATCC25922): 8 µg/mL (≈ 4.25 µM)
Compound: CC(C)C[C@H](NC(=O)[C@H](CCCNC(=N)N)NC(=O)[C@@H](N)C(C)C)C(=O)N[C@@H](CCCNC(=N)N)C(=O)N[C@@H](Cc1c[nH]c2ccccc12)C(=O)N[C@@H](Cc1c[nH]c2ccccc12)C(=O)N[C@@H](CCCNC(=N)N)C(=O)N[C@@H](CCCNC(=N)N)C(=O)N[C@@H](CCCNC(=N)N)C(=O)N[C@@H](Cc1c[nH]c2ccccc12)C(=O)N[C@@H](CCCNC(=N)N)C(=O)N[C@@H](CCCNC(=N)N)C(N)=O [1018M] (H-VRLRWWRRRWRR-NH2)
- hemolysis [1]: 0%

Compound: Polymyxin [reference compound]
- change of MIC after serial passages (E. coli ATCC25922 [5]): no change in MIC
- MIC (E. coli ATCC25922 [4]; E. coli ATCC25922, LB broth, 1 × 10^5 CFU/mL, 37°C, 16–24 h, triplicate): 1.56 µg/mL

Compound: CC[C@@H](C)[C@@H](NC(=O)[C@@H](CCCNC(=N)N)NC(=O)[C@H](NC(=O)[C@@H](C)NC(=O)[C@H](NC(=O)[C@H](NC(=O)[C@@H](CC(C)C)NC(=O)[C@@H](CCCNC(=N)N)NC(=O)[C@H](N)C(C)C)[C@H](C)CC)C(C)C)C(C)C)C(=O)N[C@H](Cc1c[nH]c2ccccc12)C(=O)N[C@H](CCCNC(=N)N)C(=O)N[C@H](CCCNC(=N)N)C(N)=O [D1018] (H-[dV][dR][dL][dI][dV][dA][dV][dR][dI][dW][dR][dR]-NH2)
- survival rate [6]: 81.7–87.6%
- hemolysis rate ([7]; 32 μg/mL): 0.542%
- hemolysis rate ([7]; 64 μg/mL): 1.724%
- hemolysis rate ([7]; 128 μg/mL): 2.316%
- increase of resistance against tested proteases (pepsin and trypsin; abstract, D-peptides compared with L-parents): 2–4 times
- MIC against E. coli ATCC25922 after exposure to pepsin (pepsin): 4 µg/mL (≈ 2.6 µM)

- decline of anti-E. coli ability after exposure to pepsin and trypsin (pepsin and trypsin): 4 times
- increase of resistance against tested proteases (pepsin and trypsin): 2–4 times
- safe concentration of murine macrophage cells [8]: 4 times of MIC
- MIC (E. coli ATCC25922 [4]; ATCC25922): 4 µg/mL (≈ 2.13 µM)
Compound: CC(C)C[C@@H](NC(=O)[C@@H](CCCNC(=N)N)NC(=O)[C@H](N)C(C)C)C(=O)N[C@H](CCCNC(=N)N)C(=O)N[C@H](Cc1c[nH]c2ccccc12)C(=O)N[C@H](Cc1c[nH]c2ccccc12)C(=O)N[C@H](CCCNC(=N)N)C(=O)N[C@H](CCCNC(=N)N)C(=O)N[C@H](CCCNC(=N)N)C(=O)N[C@H](Cc1c[nH]c2ccccc12)C(=O)N[C@H](CCCNC(=N)N)C(=O)N[C@H](CCCNC(=N)N)C(N)=O [D1018M] (H-[dV][dR][dL][dR][dW][dW][dR][dR][dR][dW][dR][dR]-NH2)
